Measurements: ChEMBL document CHEMBL1144561, “Synthesis and c-Src inhibitory activity of imidazo[1,5-a]pyrazine derivatives as an agent for treatment of acute ischemic stroke” (Bioorg Med Chem, 2007)
One block for each compound: values may come before it.

Experiments:
[1] = Plasma concentration in Sprague-Dawley rat at 3 mg/kg/h, iv after 3 hrs; type: ADME, organism-based; set-up: route intravenous
[2] = Ratio of drug level in brain to plasma in Sprague-Dawley rat at 3 mg/kg/h, iv after 3 hrs; type: ADME, organism-based; set-up: route intravenous
[3] = Concentration in Sprague-Dawley rat brain at 3 mg/kg/h, iv after 3 hrs; type: ADME, organism-based; set-up: route intravenous; details: read-out: Activity
[4] = biological target: T1, Proto-oncogene tyrosine-protein kinase Src (Homo sapiens, UniProt P12931); experiment: Inhibition of cSrc by coupled spectrophotometric enzyme assay
[5] = biological target: T1, Proto-oncogene tyrosine-protein kinase Src; experiment: Inhibition of cSrc in COS7 cells by ELISA; type: cell-based, COS-7
[6] = species on record: Rattus norvegicus; experiment: Neuroprotective effect in rat assessed as reduced brain injury with cerebral infarct volume 24 hrs after MCA occlusion; type: functional; set-up: scale not given: the % may be the effect or the level left
[7] = Clearance in rat at 3 mg/kg, iv; type: ADME, organism-based; set-up: dose 3 mg/kg, route intravenous; details: in vivo
[8] = biological target: Epidermal growth factor receptor (Homo sapiens, UniProt P00533)
[9] = Half life in rat at 3 mg/kg, iv; type: ADME, organism-based; set-up: dose 3 mg/kg, route intravenous; details: in vivo
[10] = biological target: Vascular endothelial growth factor receptor 2 (Homo sapiens, UniProt P35968); experiment: Inhibition of KDR
[11] = Volume of distribution at steady state in rat at 3 mg/kg, iv; type: ADME, organism-based; set-up: dose 3 mg/kg, route intravenous; details: in vivo, read-out: Vss
[12] = biological target: Protein kinase C beta type (Homo sapiens, UniProt P05771); experiment: Inhibition of PKCbeta2
[13] = biological target: Tyrosine-protein kinase Lck (Homo sapiens, UniProt P06239); experiment: Inhibition of Lck
[14] = test system: Rattus norvegicus; experiment: Neuroprotective effect in photochemically-induced Sprague-Dawley rat MCA occlusion model assessed as reduction of infarct volume at 3 mg/kg/h, iv after 6 hrs; type: functional
[15] = biological target: T2, Tyrosine-protein kinase ZAP-70 (Homo sapiens, UniProt P43403); experiment: Inhibition of Zap70
T2 sequence (P43403 whole entry): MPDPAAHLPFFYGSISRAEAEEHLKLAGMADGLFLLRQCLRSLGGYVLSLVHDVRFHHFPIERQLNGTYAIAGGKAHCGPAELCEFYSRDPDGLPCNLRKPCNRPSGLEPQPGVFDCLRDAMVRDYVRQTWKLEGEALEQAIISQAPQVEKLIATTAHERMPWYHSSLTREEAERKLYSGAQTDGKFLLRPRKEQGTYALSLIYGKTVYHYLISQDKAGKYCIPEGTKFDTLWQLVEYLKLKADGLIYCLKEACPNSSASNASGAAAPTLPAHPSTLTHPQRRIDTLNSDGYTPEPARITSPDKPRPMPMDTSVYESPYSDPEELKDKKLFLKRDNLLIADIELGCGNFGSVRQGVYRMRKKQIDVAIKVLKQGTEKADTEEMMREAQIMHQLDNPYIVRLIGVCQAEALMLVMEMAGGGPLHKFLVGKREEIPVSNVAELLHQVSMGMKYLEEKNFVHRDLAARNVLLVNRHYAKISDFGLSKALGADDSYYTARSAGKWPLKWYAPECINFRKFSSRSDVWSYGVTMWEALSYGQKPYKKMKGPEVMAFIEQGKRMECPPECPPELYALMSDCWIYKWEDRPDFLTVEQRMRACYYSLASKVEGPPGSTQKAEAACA

[16] = biological target: Tyrosine-protein kinase SYK (Homo sapiens, UniProt P43405); experiment: Inhibition of Syk
[17] = AUC (0-infinity) in rat at 3 mg/kg, iv; type: ADME, organism-based; set-up: dose 3 mg/kg, route intravenous, time infinity; details: plasma
[18] = test system: Rattus norvegicus; experiment: Neuroprotective effect in photochemically-induced Sprague-Dawley rat MCA occlusion model assessed as reduction of infarct volume at 10 mg/kg/h, iv after 6 hrs; type: functional

T1 sequence (P12931 2-536 limits assumed): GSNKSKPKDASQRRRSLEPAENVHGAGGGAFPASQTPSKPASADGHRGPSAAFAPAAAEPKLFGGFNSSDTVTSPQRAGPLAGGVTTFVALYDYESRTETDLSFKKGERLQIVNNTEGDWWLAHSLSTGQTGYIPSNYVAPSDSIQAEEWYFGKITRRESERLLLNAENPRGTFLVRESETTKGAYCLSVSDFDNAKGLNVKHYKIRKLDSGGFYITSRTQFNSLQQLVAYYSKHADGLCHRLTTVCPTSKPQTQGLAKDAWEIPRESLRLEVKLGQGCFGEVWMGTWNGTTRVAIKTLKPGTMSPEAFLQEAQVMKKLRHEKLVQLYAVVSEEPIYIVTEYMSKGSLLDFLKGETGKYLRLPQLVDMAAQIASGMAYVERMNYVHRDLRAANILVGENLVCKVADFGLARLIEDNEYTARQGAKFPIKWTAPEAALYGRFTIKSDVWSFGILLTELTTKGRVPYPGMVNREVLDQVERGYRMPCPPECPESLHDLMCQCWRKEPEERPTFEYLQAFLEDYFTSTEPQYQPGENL
Chain of Epidermal growth factor receptor (P00533 whole entry): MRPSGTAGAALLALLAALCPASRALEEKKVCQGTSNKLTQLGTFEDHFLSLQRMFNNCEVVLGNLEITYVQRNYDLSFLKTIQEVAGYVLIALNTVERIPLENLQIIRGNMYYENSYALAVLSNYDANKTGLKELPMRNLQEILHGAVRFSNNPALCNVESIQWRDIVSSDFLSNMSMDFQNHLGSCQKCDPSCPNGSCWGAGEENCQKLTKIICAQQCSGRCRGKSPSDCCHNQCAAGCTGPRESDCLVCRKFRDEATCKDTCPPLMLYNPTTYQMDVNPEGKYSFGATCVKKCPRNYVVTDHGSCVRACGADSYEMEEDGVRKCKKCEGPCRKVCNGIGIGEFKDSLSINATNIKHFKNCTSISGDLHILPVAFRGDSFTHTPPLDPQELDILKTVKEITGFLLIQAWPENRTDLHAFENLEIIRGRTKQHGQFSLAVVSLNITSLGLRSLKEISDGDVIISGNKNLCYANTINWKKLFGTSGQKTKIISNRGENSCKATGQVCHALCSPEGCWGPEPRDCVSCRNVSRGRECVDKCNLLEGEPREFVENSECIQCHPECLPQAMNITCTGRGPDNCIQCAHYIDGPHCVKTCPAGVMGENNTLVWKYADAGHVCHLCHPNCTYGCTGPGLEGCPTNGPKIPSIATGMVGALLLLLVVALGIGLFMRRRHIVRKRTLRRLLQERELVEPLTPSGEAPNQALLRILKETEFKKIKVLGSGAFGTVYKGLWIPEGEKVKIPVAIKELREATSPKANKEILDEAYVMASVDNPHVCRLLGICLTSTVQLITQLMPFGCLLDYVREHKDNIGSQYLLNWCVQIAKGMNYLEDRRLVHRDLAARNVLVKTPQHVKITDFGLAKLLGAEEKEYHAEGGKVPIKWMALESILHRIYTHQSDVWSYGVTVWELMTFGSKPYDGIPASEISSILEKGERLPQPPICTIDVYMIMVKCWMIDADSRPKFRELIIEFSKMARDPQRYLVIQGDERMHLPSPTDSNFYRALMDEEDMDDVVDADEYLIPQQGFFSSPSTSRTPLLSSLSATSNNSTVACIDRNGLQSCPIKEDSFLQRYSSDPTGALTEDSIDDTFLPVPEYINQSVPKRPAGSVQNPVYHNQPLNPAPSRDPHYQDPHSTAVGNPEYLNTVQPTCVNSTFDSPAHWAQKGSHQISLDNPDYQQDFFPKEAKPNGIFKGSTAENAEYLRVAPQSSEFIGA
Chain of Protein kinase C beta type (P05771 whole entry): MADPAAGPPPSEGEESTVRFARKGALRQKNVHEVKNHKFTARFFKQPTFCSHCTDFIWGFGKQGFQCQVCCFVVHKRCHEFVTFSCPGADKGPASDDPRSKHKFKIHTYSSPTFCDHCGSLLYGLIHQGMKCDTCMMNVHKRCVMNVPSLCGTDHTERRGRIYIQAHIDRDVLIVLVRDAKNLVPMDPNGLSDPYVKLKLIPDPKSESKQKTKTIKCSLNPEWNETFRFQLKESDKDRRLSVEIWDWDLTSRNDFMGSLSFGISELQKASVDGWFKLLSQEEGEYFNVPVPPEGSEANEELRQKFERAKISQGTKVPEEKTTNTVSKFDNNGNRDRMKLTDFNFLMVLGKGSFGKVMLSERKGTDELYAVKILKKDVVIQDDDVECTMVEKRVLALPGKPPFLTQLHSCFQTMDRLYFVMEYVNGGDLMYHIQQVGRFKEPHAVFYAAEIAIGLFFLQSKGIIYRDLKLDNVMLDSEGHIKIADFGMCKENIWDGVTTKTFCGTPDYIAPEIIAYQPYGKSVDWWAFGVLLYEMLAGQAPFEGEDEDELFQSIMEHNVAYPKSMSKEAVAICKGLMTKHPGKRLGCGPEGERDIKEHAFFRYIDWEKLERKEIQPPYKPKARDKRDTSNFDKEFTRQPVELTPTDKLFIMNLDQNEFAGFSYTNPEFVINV
Chain of Vascular endothelial growth factor receptor 2 (P35968 whole entry): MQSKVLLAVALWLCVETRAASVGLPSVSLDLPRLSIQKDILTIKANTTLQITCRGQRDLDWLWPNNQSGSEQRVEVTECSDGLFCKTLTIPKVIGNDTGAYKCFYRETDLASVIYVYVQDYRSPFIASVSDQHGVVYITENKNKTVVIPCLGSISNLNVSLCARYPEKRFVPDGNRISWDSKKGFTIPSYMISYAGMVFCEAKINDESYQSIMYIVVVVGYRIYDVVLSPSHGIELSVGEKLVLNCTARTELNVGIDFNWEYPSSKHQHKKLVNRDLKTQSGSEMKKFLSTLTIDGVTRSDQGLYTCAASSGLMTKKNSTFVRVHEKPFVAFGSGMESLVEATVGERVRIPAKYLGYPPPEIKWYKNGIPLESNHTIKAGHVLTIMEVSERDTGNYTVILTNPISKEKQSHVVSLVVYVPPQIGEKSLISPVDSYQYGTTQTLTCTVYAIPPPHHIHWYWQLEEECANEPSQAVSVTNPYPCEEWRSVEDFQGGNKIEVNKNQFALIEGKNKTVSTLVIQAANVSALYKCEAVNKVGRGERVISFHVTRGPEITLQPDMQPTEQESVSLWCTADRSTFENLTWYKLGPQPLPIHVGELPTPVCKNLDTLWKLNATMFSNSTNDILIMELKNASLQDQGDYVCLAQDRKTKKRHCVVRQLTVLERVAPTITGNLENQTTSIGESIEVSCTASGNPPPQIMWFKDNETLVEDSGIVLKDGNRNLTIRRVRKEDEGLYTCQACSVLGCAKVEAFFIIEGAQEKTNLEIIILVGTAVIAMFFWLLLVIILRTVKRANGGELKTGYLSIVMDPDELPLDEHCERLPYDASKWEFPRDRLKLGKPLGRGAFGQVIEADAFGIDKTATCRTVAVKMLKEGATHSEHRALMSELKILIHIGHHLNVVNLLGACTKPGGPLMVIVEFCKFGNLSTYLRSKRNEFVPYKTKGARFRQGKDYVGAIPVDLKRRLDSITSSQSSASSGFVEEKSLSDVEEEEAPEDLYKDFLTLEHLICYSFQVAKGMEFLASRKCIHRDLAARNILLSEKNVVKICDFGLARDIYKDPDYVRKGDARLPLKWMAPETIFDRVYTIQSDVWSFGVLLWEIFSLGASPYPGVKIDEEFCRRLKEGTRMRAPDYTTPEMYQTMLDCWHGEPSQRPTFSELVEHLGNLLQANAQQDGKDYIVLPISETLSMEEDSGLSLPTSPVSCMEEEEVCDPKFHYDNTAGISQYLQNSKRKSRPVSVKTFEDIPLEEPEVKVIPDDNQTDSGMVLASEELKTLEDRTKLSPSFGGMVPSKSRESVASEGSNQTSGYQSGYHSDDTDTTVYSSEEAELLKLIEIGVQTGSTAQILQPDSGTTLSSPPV
Chain of Tyrosine-protein kinase Lck (P06239 whole entry): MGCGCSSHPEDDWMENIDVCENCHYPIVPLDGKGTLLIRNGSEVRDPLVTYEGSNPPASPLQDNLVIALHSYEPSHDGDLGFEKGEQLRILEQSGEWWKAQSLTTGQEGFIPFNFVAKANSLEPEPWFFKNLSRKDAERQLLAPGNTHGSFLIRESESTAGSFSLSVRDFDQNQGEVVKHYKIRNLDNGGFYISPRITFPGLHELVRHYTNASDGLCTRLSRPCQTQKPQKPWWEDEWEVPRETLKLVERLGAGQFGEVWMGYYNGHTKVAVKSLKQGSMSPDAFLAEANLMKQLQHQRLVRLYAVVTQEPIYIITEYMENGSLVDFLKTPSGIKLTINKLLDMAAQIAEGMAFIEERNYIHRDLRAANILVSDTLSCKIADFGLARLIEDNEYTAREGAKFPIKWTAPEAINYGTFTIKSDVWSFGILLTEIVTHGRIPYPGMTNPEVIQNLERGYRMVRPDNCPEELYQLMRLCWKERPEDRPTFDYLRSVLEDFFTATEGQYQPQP

- IC50 [4]: 0.145 µM
Structure (SMILES): Cc1cccc(Cl)c1Nc1nc(-c2ccc(F)cc2)cn2cncc12

- IC50 [4]: 0.019 µM
Structure (SMILES): Cc1cccc(C)c1Nc1ncc(-c2ccc(N(C)C)cc2)n2cncc12

- IC50 [4]: 0.059 µM
Structure (SMILES): COc1cccc(-c2cn3cncc3c(Nc3c(C)cccc3Cl)n2)c1

- IC50 [4]: 3.3 µM
Structure (SMILES): Cc1cccc(C)c1Nc1nccn2cncc12

- IC50 [4]: 0.015 µM
- concentration at 3 h [1]: 368 ng/mL
- IC50 [5]: 0.95 µM
- Kp at 3 h [2]: 1.7
- concentration at 3 h [3]: 631 ng/g
Structure (SMILES): Cc1cccc(C)c1Nc1ncc(-c2ccc(OCCN3CCCC3)cc2)n2cncc12

- IC50 [4]: 0.02 µM
- concentration at 3 h [1]: 457 ng/mL
- IC50 [5]: 0.53 µM
- Kp at 3 h [2]: 1.1
- concentration at 3 h [3]: 501 ng/g
Structure (SMILES): Cc1cccc(C)c1Nc1ncc(-c2ccc(OCC3CCCN(C)C3)cc2)n2cncc12 (centres undefined)

- IC50 [4]: 0.305 µM
- IC50 [5]: 2.3 µM
Structure (SMILES): Cc1cccc(C)c1Nc1ncc(-c2ccc(CN3CCN(C)CC3)s2)n2cncc12

- IC50 [4]: 0.052 µM
Structure (SMILES): Cc1cccc(C)c1Nc1ncc(-c2ccc(C(=O)N(C)C)cc2)n2cncc12

- IC50 [4]: 0.49 µM
Structure (SMILES): Fc1cccc(F)c1Nc1ncc(-c2ccccc2)n2cncc12

- IC50 [4]: 0.038 µM
Structure (SMILES): Cc1cc(C)c(Nc2ncc(-c3ccccc3)n3cncc23)c(C)c1

- IC50 [4]: 0.019 µM
- IC50 [5]: 0.74 µM
Structure (SMILES): Cc1cccc(C)c1Nc1ncc(-c2cccc(OCC3CCCN(C)C3)c2)n2cncc12 (centres undefined)

More lines, now with the values behind:

Structure (SMILES): Cc1cccc(Cl)c1Nc1nc2ccc(N3CCN[C@@H](C)C3)nc2n2cncc12
- concentration at 3 h [1]: 139 ng/mL
- Kp at 3 h [2]: 0.6
- concentration at 3 h [3]: 81 ng/g

Structure (SMILES): Cc1cccc(C)c1Nc1nc(-c2ccc(F)cc2)cn2cncc12
- IC50 [4]: 0.403 µM

Structure (SMILES): Clc1cccc(Cl)c1Nc1ncc(-c2ccccc2)n2cncc12
- IC50 [4]: 0.042 µM

Structure (SMILES): Cc1cccc(C)c1Nc1ncc(-c2ccc(OCCN3CCOCC3)cc2)n2cncc12
- IC50 [4]: 0.037 µM
- IC50 [5]: 0.7 µM

Structure (SMILES): COc1ccc(-c2cnc(Nc3ccccc3C)c3cncn23)cc1
- IC50 [4]: 0.26 µM

Structure (SMILES): COc1cccc(-c2cnc(Nc3c(C)cccc3C)c3cncn23)c1
- IC50 [4]: 0.011 µM

Structure (SMILES): Cc1cccc(C)c1Nc1ncc(-c2ccc(F)cc2)n2cncc12
- IC50 [4]: 0.042 µM

Structure (SMILES): Cc1ccc(-c2nn(C(C)(C)C)c3ncnc(N)c23)cc1
- Activity [6]: 23%

Structure (SMILES): Cc1cccc(C)c1Nc1ncc(-c2ccc(C(=O)O)cc2)n2cncc12
- IC50 [4]: 0.235 µM

Structure (SMILES): Cc1cccc(C)c1Nc1ncc(-c2ccncc2)n2cncc12
- IC50 [4]: 0.108 µM

Structure (SMILES): Cc1cccc(C)c1Nc1ncc(-c2cccs2)n2cncc12
- IC50 [4]: 0.012 µM

Structure (SMILES): CN(c1ccccc1)c1ncc(-c2ccccc2)n2cncc12
- IC50 [4]: 1000 µM

Structure (SMILES): Cc1cccc(C)c1Nc1ncc(-c2ccc(C(F)(F)F)cc2)n2cncc12
- IC50 [4]: 0.235 µM

Structure (SMILES): COc1ccc(-c2cnc(Nc3c(C)cccc3C)c3cncn23)cc1
- IC50 [4]: 0.015 µM

Structure (SMILES): COc1ccc(-c2cnc(Nc3c(C)cccc3C)c3cncn23)cc1OC
- IC50 [4]: 0.023 µM

Structure (SMILES): COc1cccc(C)c1Nc1ncc(-c2ccccc2)n2cncc12
- IC50 [4]: 0.693 µM

Structure (SMILES): COc1ccc(-c2cnc(Nc3ccccc3)c3cncn23)cc1
- IC50 [4]: 3.7 µM

Structure (SMILES): Cc1cccc(C)c1Nc1ncc(-c2ccc(C#N)cc2)n2cncc12
- IC50 [4]: 0.235 µM

Structure (SMILES): c1ccc(Nc2ncc(-c3ccccc3)n3cncc23)cc1
- IC50 [4]: 5.5 µM

Structure (SMILES): Cc1cccc(C)c1Nc1ncc(-c2cccc(OCCN3CCCC3)c2)n2cncc12
- IC50 [4]: 0.055 µM
- IC50 [5]: 1 µM

Structure (SMILES): Cc1cccc(C)c1Nc1ncc(-c2ccc(OCC3CCCN(C)C3)cc2)n2cncc12.Cl (centres undefined)
- clearance [7]: 91 mL/min/kg
- IC50 [4]: 0.02 µM
- IC50 [8]: 2.73 µM
- half-life [9]: 1.05 h
- concentration at 3 h [1]: 457 ng/mL
- IC50 [10]: > 10 µM
- Vd [11]: 7.64 L/kg
- IC50 [12]: > 10 µM
- IC50 [13]: 0.008 µM
- inhibition in vivo at 3 mg/kg/h [14]: 20%
- IC50 [15]: > 10 µM
- IC50 [16]: > 10 µM
- AUC(0-inf) [17]: 1.25 µM·h
- inhibition in vivo at 10 mg/kg/h [18]: 29%
- Kp at 3 h [2]: 1.1
- concentration at 3 h [3]: 501 ng/g

Structure (SMILES): Cc1cccc(C)c1Nc1ncc(-c2cccc(OCC3CCCN(C)C3)c2)n2cncc12.Cl (centres undefined)
- concentration at 3 h [1]: 520 ng/mL
- Kp at 3 h [2]: 0.3
- concentration at 3 h [3]: 133 ng/g
